Reference: article PMC9956102, “Structural Insights on Hyp-Gly-Containing Peptides as Antiplatelet Compounds through Topomer CoMFA and CoMSIA Analysis” (Foods, 2023)
Counter-ions that a name gives are not always drawn. Peptide text beside a SMILES is read from it.

Test system: not listed separately
Assay: Thymus index and spleen index
Format: in vivo, rat
Settings: SD rats, oral, 65 μmol/kg bw, n = 6
Experimental: After the rats were sacrificed, the thymuses and spleens were collected and weighed to obtain the thymus index (TI) and spleen index (SI). The TI and SI were calculated according to the following equation: TI/SI (mg/g) = (weight of thymus/spleen)/body weight.

| Compound | thymus index (TI) and spleen index (SI) compared to vehicle group |
| --- | --- |
| COC(=O)[C@H](c1ccccc1Cl)N1CCc2sccc2C1 [clopidogrel, Clopidogrel hydrogen sulfate, reference compound] | no significant difference |

Same assay, conditions: SD rats, oral, 200 μmol/kg b.w., n = 6

| Compound | thymus index (TI) and spleen index (SI) compared to vehicle group |
| --- | --- |
| N[C@@H](CCC(=O)O)C(=O)N1C[C@H](O)C[C@H]1C(=O)NCC(=O)N[C@@H](CCC(=O)O)C(=O)O [EOGE, Glu-Hyp-Gly-Glu] (HELM PEPTIDE1{E.[Hyp].G.E}$$$$V2.0) | no significant difference |

Same assay, conditions: SD rats, oral, 300 μmol/kg b.w., n = 6

| Compound | thymus index (TI) and spleen index (SI) compared to vehicle group |
| --- | --- |
| N[C@@H](CCC(=O)O)C(=O)N1C[C@H](O)C[C@H]1C(=O)NCC(=O)N[C@@H](CCC(=O)O)C(=O)O [EOGE, Glu-Hyp-Gly-Glu] (HELM PEPTIDE1{E.[Hyp].G.E}$$$$V2.0) | no significant difference |

Test system: not listed separately
Assay: Coagulation parameters (PT, APTT, TT) after oral administration
Format: in vivo, rat
Settings: SD rats, 65 μmol/kg bw, n = 6
Description: The prothrombin time (PT), activated partial thromboplastin time (APTT), and thrombin time (TT) assay methods refer to our previous study. PT, APTT, and TT detection kits (Siemens, Shanghai, China) were employed for the determination of coagulation parameters according to the manufacturer’s instructions.

| Compound | PT (prothrombin time) | TT (thrombin time) |
| --- | --- | --- |
| COC(=O)[C@H](c1ccccc1Cl)N1CCc2sccc2C1 [clopidogrel, Clopidogrel hydrogen sulfate, reference compound] | altered the TT and PT significantly | altered the TT and PT significantly |

Same assay, conditions: SD rats, 200 μmol/kg b.w., n = 6

| Compound | coagulation parameters, including PT, TT, and APTT |
| --- | --- |
| N[C@@H](CCC(=O)O)C(=O)N1C[C@H](O)C[C@H]1C(=O)NCC(=O)N[C@@H](CCC(=O)O)C(=O)O [EOGE, Glu-Hyp-Gly-Glu] (HELM PEPTIDE1{E.[Hyp].G.E}$$$$V2.0) | no significant effect |

Same assay, conditions: SD rats, 300 μmol/kg b.w., n = 6

| Compound | coagulation parameters, including PT, TT, and APTT |
| --- | --- |
| N[C@@H](CCC(=O)O)C(=O)N1C[C@H](O)C[C@H]1C(=O)NCC(=O)N[C@@H](CCC(=O)O)C(=O)O [EOGE, Glu-Hyp-Gly-Glu] (HELM PEPTIDE1{E.[Hyp].G.E}$$$$V2.0) | no significant effect |

Test system: thrombus formation
Assay: not given
Settings: oral administration; cited from earlier work
Description: Collagen is a natural source of bioactive peptides and widely distributed in skin and bone tissue, which has a unique triple-helix structure with a repeated amino acid sequence of (Gly-X-Y)n, in which X and Y are typically Pro and Hyp. Hyp-Gly-containing peptides are abundant in collagen, and a large quantity of these peptides could be released after hydrolysis.

| Compound | thrombus formation in vivo |
| --- | --- |
| OGEFG [peptide identified from Salmo Salar skin in a previous study] | attenuates thrombus formation without bleeding risks |

Test system: ADP-induced platelet aggregation
Assay: not given
Format: cell-based, rat
Settings: not given
Experimental: The platelet was isolated from rat aorta blood and mixed with sodium citrate (1:9, v/v) as previously described with some modifications. Briefly, anticoagulated blood was centrifuged (50× g, 10 min) to obtain platelet-rich plasma (PRP). The residue was centrifuged at 750× g for 10 min to collect the platelet-poor plasma (PPP), and PRP was diluted to 2–3 × 10^8 with PPP.
Inhibition of platelet aggregation induced by ADP was measured with a four-channel aggregometer as previously described. Aliquots of 270 μL of PRP were incubated with 30 μL of PPP or peptides with different concentrations at 37 °C for 5 min. After incubation, platelet aggregation was induced by adding 30 μL of ADP (0.1 mM). The platelet aggregation at 5 min was recorded, and the inhibition rate was calculated as follows. Inhibition of platelet aggregation (%) = [1 − platelet aggregation (sample)/platelet aggregation (control)] × 100
The IC50 value of platelet aggregation was calculated by Graphpad Prism 6.0.

| Compound | IC50 [µM] |
| --- | --- |
| O=C(O)CC[C@H](NC(=O)CNC(=O)[C@@H]1CCCN1)C(=O)O [PGE] (H-Pro-Gly-Glu-OH; N-terminus and C-terminus assumed) | 927 |
| O=C(O)C[C@H](NC(=O)CNC(=O)[C@@H]1C[C@@H](O)CN1)C(=O)O [OGD] (HELM PEPTIDE1{[Hyp].G.D}$$$$V2.0; N-terminus and C-terminus assumed) | 435 |
| N[C@@H](CCC(=O)O)C(=O)N1C[C@H](O)C[C@H]1C(=O)NCC(=O)N[C@@H](CCC(=O)O)C(=O)O [EOGE, Glu-Hyp-Gly-Glu] (HELM PEPTIDE1{E.[Hyp].G.E}$$$$V2.0) | 390 |
| C[C@H](NC(=O)[C@H](CO)NC(=O)CNC(=O)[C@@H]1C[C@@H](O)CN1)C(=O)O [OGSA] (HELM PEPTIDE1{[Hyp].G.S.A}$$$$V2.0) | 630 |
| O=C(O)CC[C@H](NC(=O)[C@H](CO)NC(=O)CNC(=O)[C@@H]1C[C@@H](O)CN1)C(=O)O [OGSE] (HELM PEPTIDE1{[Hyp].G.S.E}$$$$V2.0) | 558 |
| O=C(O)CNC(=O)[C@@H]1C[C@@H](O)CN1 [OG] (HELM PEPTIDE1{[Hyp].G}$$$$V2.0) | 1420 |
| N[C@@H](CCC(=O)O)C(=O)N1C[C@H](O)C[C@H]1C(=O)NCC(=O)O [EOG] (HELM PEPTIDE1{E.[Hyp].G}$$$$V2.0; N-terminus and C-terminus assumed) | 395 |
| O=C(CNC(=O)[C@@H]1CCCN1)N[C@@H](Cc1c[nH]cn1)C(=O)N[C@@H](Cc1c[nH]cn1)C(=O)O [PGHH] | 1400 |
| O=C(O)CC[C@H](NC(=O)CNC(=O)[C@@H]1C[C@@H](O)CN1C(=O)[C@H](CCC(=O)O)NC(=O)CNC(=O)[C@@H]1CCCN1)C(=O)O [PGEOGE] (HELM PEPTIDE1{P.G.E.[Hyp].G.E}$$$$V2.0; N-terminus and C-terminus assumed) | 317 |
| O=C(O)CNC(=O)[C@@H]1CCCN1 [PG] (H-Pro-Gly-OH; N-terminus and C-terminus assumed) | 3640 |
| NCCCC[C@H](NC(=O)CNC(=O)[C@@H]1CCCN1)C(=O)N1CCC[C@H]1C(=O)O [PGKP] (H-PGKP-OH) | 2570 |
| NC(=O)CC[C@H](NC(=O)CNC(=O)[C@@H]1CCCN1)C(=O)N1CCC[C@H]1C(=O)O [PGQP] (H-PGQP-OH) | 2410 |
| O=C(NCC(=O)N1CCC[C@H]1C(=O)O)[C@@H]1C[C@@H](O)CN1 [OGP] (HELM PEPTIDE1{[Hyp].G.P}$$$$V2.0; N-terminus and C-terminus assumed) | 506 |
| O=C(O)CC[C@H](NC(=O)CNC(=O)[C@@H]1C[C@@H](O)CN1)C(=O)O [OGE] (HELM PEPTIDE1{[Hyp].G.E}$$$$V2.0; N-terminus and C-terminus assumed) | 620 |
| NC(=O)CC[C@H](NC(=O)CNC(=O)[C@@H]1C[C@@H](O)CN1)C(=O)O [OGQ] (HELM PEPTIDE1{[Hyp].G.Q}$$$$V2.0; N-terminus and C-terminus assumed) | 760 |

Continued, values first:

| IC50 [µM] | Compound |
| --- | --- |
| 857 | O=C(O)CC[C@H](NC(=O)CNC(=O)[C@@H]1CCCN1)C(=O)N1C[C@H](O)C[C@H]1C(=O)NCC(=O)O [PGEOG] (HELM PEPTIDE1{P.G.E.[Hyp].G}$$$$V2.0; N-terminus and C-terminus assumed) |
| 5340 | CSCC[C@H](NC(=O)[C@@H]1CCCN1C(=O)CNC(=O)[C@@H]1CCCN1C(=O)[C@@H]1C[C@@H](O)CN1C(=O)CN)C(=O)O [GOPGPM] (HELM PEPTIDE1{G.[Hyp].P.G.P.M}$$$$V2.0; N-terminus and C-terminus assumed) |
| 1490 | CSCC[C@H](NC(=O)[C@@H]1C[C@@H](O)CN1C(=O)CNC(=O)[C@@H]1C[C@@H](O)CN1)C(=O)NCC(=O)O [OGOMG] (HELM PEPTIDE1{[Hyp].G.[Hyp].M.G}$$$$V2.0; N-terminus and C-terminus assumed) |
| 661 | N[C@@H](CC(=O)O)C(=O)N1C[C@H](O)C[C@H]1C(=O)NCC(=O)N[C@@H](CCC(=O)O)C(=O)O [DOGE] (HELM PEPTIDE1{D.[Hyp].G.E}$$$$V2.0) |
| 3560 | NC(=O)CC[C@H](NC(=O)[C@@H]1CCCN1C(=O)CNC(=O)[C@@H]1CCCN1)C(=O)O [PGPQ] (H-PGPQ-OH) |
| 2080 | NCC(=O)N1C[C@H](O)C[C@H]1C(=O)N1C[C@H](O)C[C@H]1C(=O)NCC(=O)N1CCC[C@H]1C(=O)N[C@@H](CCC(N)=O)C(=O)O [GOOGPQ] (HELM PEPTIDE1{G.[Hyp].[Hyp].G.P.Q}$$$$V2.0; N-terminus and C-terminus assumed) |
| 2790 | NCCCC[C@H](NC(=O)[C@@H]1CCCN1C(=O)CNC(=O)[C@@H]1CCCN1)C(=O)O [PGPK] (H-PGPK-OH) |
| 878 | NCC(=O)N[C@@H](CCC(=O)O)C(=O)N1C[C@H](O)C[C@H]1C(=O)NCC(=O)O [GEOG] (HELM PEPTIDE1{G.E.[Hyp].G}$$$$V2.0) |
| 2450 | CC(C)[C@H](N)C(=O)NCC(=O)N1CCC[C@H]1C(=O)N1C[C@H](O)C[C@H]1C(=O)NCC(=O)N1CCC[C@H]1C(=O)N[C@@H](C)C(=O)O [VGPOGPA] (HELM PEPTIDE1{V.G.P.[Hyp].G.P.A}$$$$V2.0; N-terminus and C-terminus assumed) |
